# Experimental data as given in patent US10336732B2, “1-heterocyclyl isochromanyl compounds and analogs for treating CNS disorders” (Sunovion Pharmaceuticals Inc., priority 2015, dated 2019).
# Tested on: mice
# Assay: Neuropharmacological assay (SmartCube), behavioral signature of compound-treated mice
# Type: in vivo
# Details: i.p. 15 min before behavioral test, most efficacious dose(s) of 3 doses
# Outline: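 Read-out is an automated video-based behavioral signature, scored as per-class probabilities (e.g., anxiolytic, antidepressant) against reference compounds. Dosing was i.p. at three doses, 15 min pre-test, in NMP, polyethylene glycol and propylene glycol. Values shown are from the most efficacious dose(s).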
SMILES,AD: ADHD (probability that behavioral signature matches class),AG: analgesic (probability that behavioral signature matches class),AX: anxiolytic (probability that behavioral signature matches class),CE: cognitive enhancer (probability that behavioral signature matches class),DP: anti-depressant (probability that behavioral signature matches class),HA: hallucinogen (probability that behavioral signature matches class),MS: mood stabilizer (probability that behavioral signature matches class),PS: anti-psychotic (probability that behavioral signature matches class),SD: sedative hypnotic (probability that behavioral signature matches class),UN: uncharacterized CNS activity (probability that behavioral signature matches class)
"N#Cc1ccc2c(c1)[C@H]([C@H]1CCCN1)OCC2 [Compound I-41, (R)-1-((R)-pyrrolidin-2-yl)isochroman-7-carbonitrile]",+ (LOQ ≤ + <5%),++ (5% ≤ ++ <25%),++ (5% ≤ ++ <25%),++ (5% ≤ ++ <25%),+++ (25% ≤ +++ <50%),+ (LOQ ≤ + <5%),++ (5% ≤ ++ <25%),++ (5% ≤ ++ <25%),++ (5% ≤ ++ <25%),+ (LOQ ≤ + <5%)
"N#Cc1ccc2c(c1)[C@@H]([C@H]1CCCN1)OCC2 [Compound I-42, (S)-1-((R)-pyrrolidin-2-yl)isochroman-7-carbonitrile]",+ (LOQ ≤ + <5%),++ (5% ≤ ++ <25%),++ (5% ≤ ++ <25%),++ (5% ≤ ++ <25%),+++ (25% ≤ +++ <50%),+ (LOQ ≤ + <5%),+ (LOQ ≤ + <5%),++ (5% ≤ ++ <25%),++ (5% ≤ ++ <25%),+ (LOQ ≤ + <5%)
"N#Cc1ccc2c(c1)CCO[C@@H]2[C@@H]1CCCN1 [Compound I-43, (S)-1-((S)-pyrrolidin-2-yl)isochroman-6-carbonitrile]",+ (LOQ ≤ + <5%),++ (5% ≤ ++ <25%),+++ (25% ≤ +++ <50%),++ (5% ≤ ++ <25%),++ (5% ≤ ++ <25%),+ (LOQ ≤ + <5%),+ (LOQ ≤ + <5%),++ (5% ≤ ++ <25%),+ (LOQ ≤ + <5%),+ (LOQ ≤ + <5%)
"N#Cc1ccc2c(c1)CCO[C@H]2[C@@H]1CCCN1 [Compound I-44, (R)-1-((S)-pyrrolidin-2-yl)isochroman-6-carbonitrile]",+ (LOQ ≤ + <5%),++ (5% ≤ ++ <25%),+++ (25% ≤ +++ <50%),++ (5% ≤ ++ <25%),++ (5% ≤ ++ <25%),+ (LOQ ≤ + <5%),++ (5% ≤ ++ <25%),+++ (25% ≤ +++ <50%),+ (LOQ ≤ + <5%),+ (LOQ ≤ + <5%)
"N#Cc1ccc2c(c1)CCO[C@H]2[C@H]1CCCN1 [Compound I-45, (R)-1-((R)-pyrrolidin-2-yl)isochroman-6-carbonitrile]",+ (LOQ ≤ + <5%),++ (5% ≤ ++ <25%),+++ (25% ≤ +++ <50%),+ (LOQ ≤ + <5%),++ (5% ≤ ++ <25%),+ (LOQ ≤ + <5%),+ (LOQ ≤ + <5%),+ (LOQ ≤ + <5%),+ (LOQ ≤ + <5%),+ (LOQ ≤ + <5%)
"N#Cc1ccc2c(c1)CCO[C@@H]2[C@H]1CCCN1 [Compound I-46, (S)-1-((R)-pyrrolidin-2-yl)isochroman-6-carbonitrile]",+ (LOQ ≤ + <5%),++ (5% ≤ ++ <25%),++ (5% ≤ ++ <25%),++ (5% ≤ ++ <25%),++ (5% ≤ ++ <25%),+ (LOQ ≤ + <5%),+ (LOQ ≤ + <5%),++++ (50% ≤ ++++),++ (5% ≤ ++ <25%),+ (LOQ ≤ + <5%)
"COc1cccc2c1[C@H]([C@@H]1CCCN1)OCC2 [Compound I-47, (S)-2-((R)-8-methoxyisochroman-1-yl)pyrrolidine]",+ (LOQ ≤ + <5%),+ (LOQ ≤ + <5%),++ (5% ≤ ++ <25%),+ (LOQ ≤ + <5%),+ (LOQ ≤ + <5%),+ (LOQ ≤ + <5%),+ (LOQ ≤ + <5%),+ (LOQ ≤ + <5%),+ (LOQ ≤ + <5%),+ (LOQ ≤ + <5%)
"COc1cccc2c1[C@@H]([C@@H]1CCCN1)OCC2 [Compound I-48, (S)-2-((S)-8-methoxyisochroman-1-yl)pyrrolidine]",+ (LOQ ≤ + <5%),+++ (25% ≤ +++ <50%),++ (5% ≤ ++ <25%),++ (5% ≤ ++ <25%),++ (5% ≤ ++ <25%),+ (LOQ ≤ + <5%),+ (LOQ ≤ + <5%),++ (5% ≤ ++ <25%),+ (LOQ ≤ + <5%),+ (LOQ ≤ + <5%)
"COc1cccc2c1[C@H]([C@H]1CCCN1)OCC2 [Compound I-49, (R)-2-((R)-8-methoxyisochroman-1-yl)pyrrolidine]",+ (LOQ ≤ + <5%),++ (5% ≤ ++ <25%),++ (5% ≤ ++ <25%),++ (5% ≤ ++ <25%),++ (5% ≤ ++ <25%),+ (LOQ ≤ + <5%),++ (5% ≤ ++ <25%),++ (5% ≤ ++ <25%),++ (5% ≤ ++ <25%),++ (5% ≤ ++ <25%)
"COc1cccc2c1[C@@H]([C@H]1CCCN1)OCC2 [Compound I-50, (R)-2-((S)-8-methoxyisochroman-1-yl)pyrrolidine]",+ (LOQ ≤ + <5%),++ (5% ≤ ++ <25%),+++ (25% ≤ +++ <50%),++ (5% ≤ ++ <25%),++ (5% ≤ ++ <25%),+ (LOQ ≤ + <5%),+ (LOQ ≤ + <5%),++ (5% ≤ ++ <25%),+ (LOQ ≤ + <5%),+++ (25% ≤ +++ <50%)
"c1cc2c(c3c1CCO[C@@H]3[C@@H]1CCCN1)OCO2 [Compound I-51, (S)-2-((S)-7,9-dihydro-6H-[1,3]dioxolo[4,5-h]isochromen-9-yl)pyrrolidine]",+ (LOQ ≤ + <5%),++ (5% ≤ ++ <25%),++ (5% ≤ ++ <25%),+ (LOQ ≤ + <5%),+ (LOQ ≤ + <5%),+ (LOQ ≤ + <5%),+ (LOQ ≤ + <5%),+ (LOQ ≤ + <5%),+ (LOQ ≤ + <5%),++ (5% ≤ ++ <25%)

# Same assay, conditions: i.p. 15 min before behavioral test, most efficacious dose(s) of 3 doses
row,SMILES,XG: anxiogenic (probability that behavioral signature matches class)
1,"N#Cc1ccc2c(c1)[C@H]([C@H]1CCCN1)OCC2 [Compound I-41, (R)-1-((R)-pyrrolidin-2-yl)isochroman-7-carbonitrile]",+ (LOQ ≤ + <5%)
2,"N#Cc1ccc2c(c1)[C@@H]([C@H]1CCCN1)OCC2 [Compound I-42, (S)-1-((R)-pyrrolidin-2-yl)isochroman-7-carbonitrile]",+ (LOQ ≤ + <5%)
3,"N#Cc1ccc2c(c1)CCO[C@@H]2[C@@H]1CCCN1 [Compound I-43, (S)-1-((S)-pyrrolidin-2-yl)isochroman-6-carbonitrile]",+ (LOQ ≤ + <5%)
4,"N#Cc1ccc2c(c1)CCO[C@H]2[C@@H]1CCCN1 [Compound I-44, (R)-1-((S)-pyrrolidin-2-yl)isochroman-6-carbonitrile]",+ (LOQ ≤ + <5%)
5,"N#Cc1ccc2c(c1)CCO[C@H]2[C@H]1CCCN1 [Compound I-45, (R)-1-((R)-pyrrolidin-2-yl)isochroman-6-carbonitrile]",+ (LOQ ≤ + <5%)
6,"N#Cc1ccc2c(c1)CCO[C@@H]2[C@H]1CCCN1 [Compound I-46, (S)-1-((R)-pyrrolidin-2-yl)isochroman-6-carbonitrile]",+ (LOQ ≤ + <5%)
7,"COc1cccc2c1[C@H]([C@@H]1CCCN1)OCC2 [Compound I-47, (S)-2-((R)-8-methoxyisochroman-1-yl)pyrrolidine]",+ (LOQ ≤ + <5%)
8,"COc1cccc2c1[C@@H]([C@@H]1CCCN1)OCC2 [Compound I-48, (S)-2-((S)-8-methoxyisochroman-1-yl)pyrrolidine]",+ (LOQ ≤ + <5%)
9,"COc1cccc2c1[C@H]([C@H]1CCCN1)OCC2 [Compound I-49, (R)-2-((R)-8-methoxyisochroman-1-yl)pyrrolidine]",+ (LOQ ≤ + <5%)
10,"COc1cccc2c1[C@@H]([C@H]1CCCN1)OCC2 [Compound I-50, (R)-2-((S)-8-methoxyisochroman-1-yl)pyrrolidine]",+ (LOQ ≤ + <5%)
11,"c1cc2c(c3c1CCO[C@@H]3[C@@H]1CCCN1)OCO2 [Compound I-51, (S)-2-((S)-7,9-dihydro-6H-[1,3]dioxolo[4,5-h]isochromen-9-yl)pyrrolidine]",+ (LOQ ≤ + <5%)
